According to patent US20210038607A1, “OXADIAZOLYLTHIOPHENE DERIVATIVES USEFUL AS HISTONE DEACETYLASE INHIBITORS” (Karus Therapeutics Limited, priority 2018, published 2021):

Assays:
Human HDAC1 = biological target: T1, Human HDAC1 (Homo sapiens, UniProt Q13547); experiment: HDAC1 biochemical assay, AMC-labeled peptide substrate; details: read-out: HDAC Isoform IC50 (nM) 1
T1 construct: full length with C-terminal His-tag and C-terminal FLAG-tag; His (C); FLAG (C); host or cells: baculovirus expression system
Procedure, shortened: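 Baculovirus-expressed full-length human HDAC1 with His and FLAG tags, 0.3 ng/ul, incubated 1 h at 30° C with compound and 50 μM RHKK(Ac)AMC in Tris pH 8.0 buffer with BSA and 1% DMSO. Developer then releases AMC from deacetylated substrate; fluorescence read at 360/460 nm.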

Human HDAC5 = biological target: T2, Human HDAC5 (Homo sapiens, UniProt Q9UQL6); experiment: HDAC5 biochemical assay, class IIa-specific substrate; details: read-out: HDAC Isoform IC50 (nM) 5
T2 construct: full length with C-terminal His tag, MW=51.1 kDa; His (C); host or cells: baculovirus expression system
Procedure, shortened: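 Full-length C-terminal His-tagged HDAC5 from baculovirus (0.05 ng/ul) incubated 30 min at room temperature with 50 μM Boc-Lys(trifluoroacetyl)-AMC and compound, Tris pH 8.0 buffer with BSA, 1% DMSO. Developer then releases AMC; fluorescence 360/460 nm.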

Recombinant human HDAC6 = biological target: T3, Recombinant human HDAC6 (Homo sapiens, UniProt Q9UBN7); experiment: HDAC6 biochemical assay, AMC-labeled peptide substrate; details: HDAC6; read-out: HDAC Isoform IC50 (nM) 6
T3 construct: full length, MW=159 kDa; GST (N); host or cells: Sf9 insect cells (baculovirus)
T3 sequence (Q9UBN7 1-1215): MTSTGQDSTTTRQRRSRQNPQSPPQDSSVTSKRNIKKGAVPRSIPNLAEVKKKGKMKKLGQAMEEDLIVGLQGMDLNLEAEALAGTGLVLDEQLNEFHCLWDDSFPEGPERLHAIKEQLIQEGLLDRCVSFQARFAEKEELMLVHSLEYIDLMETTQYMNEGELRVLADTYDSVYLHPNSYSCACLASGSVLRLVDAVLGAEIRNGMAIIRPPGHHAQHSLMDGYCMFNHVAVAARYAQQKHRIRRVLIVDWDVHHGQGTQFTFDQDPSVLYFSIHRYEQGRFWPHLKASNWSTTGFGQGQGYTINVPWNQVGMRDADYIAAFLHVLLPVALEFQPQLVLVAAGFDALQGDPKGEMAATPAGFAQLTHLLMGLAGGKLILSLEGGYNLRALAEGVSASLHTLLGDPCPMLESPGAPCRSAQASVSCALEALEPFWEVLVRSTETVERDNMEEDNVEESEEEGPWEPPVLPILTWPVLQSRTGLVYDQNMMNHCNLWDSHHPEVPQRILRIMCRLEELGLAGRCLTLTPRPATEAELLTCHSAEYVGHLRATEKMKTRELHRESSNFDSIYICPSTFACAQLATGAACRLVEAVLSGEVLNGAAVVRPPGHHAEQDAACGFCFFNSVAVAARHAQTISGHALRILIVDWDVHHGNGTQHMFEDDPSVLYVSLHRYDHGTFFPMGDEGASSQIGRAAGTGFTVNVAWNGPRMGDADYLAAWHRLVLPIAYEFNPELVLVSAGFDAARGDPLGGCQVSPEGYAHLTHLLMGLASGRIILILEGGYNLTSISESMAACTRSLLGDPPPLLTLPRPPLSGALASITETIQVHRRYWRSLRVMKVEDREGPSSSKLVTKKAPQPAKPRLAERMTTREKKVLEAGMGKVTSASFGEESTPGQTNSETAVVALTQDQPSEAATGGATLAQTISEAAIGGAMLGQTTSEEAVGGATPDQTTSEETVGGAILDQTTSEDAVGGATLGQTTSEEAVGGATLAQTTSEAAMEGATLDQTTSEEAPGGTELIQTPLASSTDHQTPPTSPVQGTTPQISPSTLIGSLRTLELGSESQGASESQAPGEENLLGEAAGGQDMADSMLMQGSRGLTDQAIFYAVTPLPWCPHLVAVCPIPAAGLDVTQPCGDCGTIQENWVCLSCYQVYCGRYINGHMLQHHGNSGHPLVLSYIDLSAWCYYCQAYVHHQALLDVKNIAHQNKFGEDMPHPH
Procedure, shortened: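 Two-step fluorogenic read-out: enzyme deacetylates 50 μM RHKK(Ac)AMC for 1 h at 30° C in pH 8.0 Tris buffer with BSA and 1% DMSO, then developer cleavage gives signal at Ex 360/Em 460. Enzyme: 0.3 ng/ul recombinant full-length human HDAC6, GST-tagged, Sf9-expressed.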

Human HDAC4 = biological target: T4, Human HDAC4 (Homo sapiens, UniProt P56524); experiment: HDAC4 biochemical assay, class IIa-specific substrate; details: read-out: HDAC Isoform IC50 (nM) 4
T4 construct: amino acids 627-1085 with N-terminal GST tag; GST (N); host or cells: baculovirus expression system
Procedure, shortened: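 GST-tagged human HDAC4 (aa 627-1085, baculovirus) at 0.004 ng/ul was incubated 30 min at room temperature with 50 μM class IIa-specific substrate BOC-Lys(trifluoroacetyl)-AMC in Tris-HCl pH 8.0 buffer with BSA, 1% DMSO. Developer then released AMC, read at 360/460 nm.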

Human HDAC9 = biological target: T5, Human HDAC9 (Homo sapiens, UniProt Q9UKV0); experiment: HDAC9 biochemical assay, class IIa-specific substrate; details: read-out: HDAC Isoform IC50 (nM) 9
T5 construct: amino acids 604-1066 with C-terminal His tag; His (C); host or cells: baculovirus expression system
Procedure, shortened: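 HDAC9 residues 604-1066 (C-terminal His tag, baculovirus-expressed) at 0.06 ng/ul with 50 μM class IIa substrate Boc-Lys(trifluoroacetyl)-AMC in Tris-HCl pH 8.0 buffer with BSA and 1% DMSO. 30 min at room temperature, then developer added; fluorescence read at 360/460 nm Ex/Em.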

Human HDAC7 = biological target: T6, Human HDAC7 (Homo sapiens, UniProt Q8WUI4); experiment: HDAC7 biochemical assay, class IIa-specific substrate; details: read-out: HDAC Isoform IC50 (nM) 7
T6 construct: (a.a. 518-end) with N-terminal GST tag; GST (N); host or cells: baculovirus expression system
T6 sequence (Q8WUI4 518-952 limits assumed): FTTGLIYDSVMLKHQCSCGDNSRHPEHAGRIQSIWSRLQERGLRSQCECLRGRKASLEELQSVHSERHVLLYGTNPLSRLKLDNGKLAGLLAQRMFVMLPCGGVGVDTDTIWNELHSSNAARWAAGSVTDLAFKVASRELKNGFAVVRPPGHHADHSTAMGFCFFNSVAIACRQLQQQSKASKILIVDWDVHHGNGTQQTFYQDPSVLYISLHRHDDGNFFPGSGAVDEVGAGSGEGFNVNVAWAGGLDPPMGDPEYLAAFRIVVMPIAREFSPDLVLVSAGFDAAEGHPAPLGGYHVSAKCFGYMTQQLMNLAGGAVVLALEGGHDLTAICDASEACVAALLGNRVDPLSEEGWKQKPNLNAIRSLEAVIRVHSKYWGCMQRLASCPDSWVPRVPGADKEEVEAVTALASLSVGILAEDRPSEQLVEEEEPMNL
Procedure, shortened: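 GST-tagged HDAC7 (a.a. 518-end, baculovirus-expressed) at 0.001 ng/ul with 50 μM Boc-Lys(trifluoroacetyl)-AMC substrate, 30 min at room temperature in pH 8.0 Tris buffer with BSA, 1% DMSO final. Developer then releases AMC; fluorescence read at 360/460 nm.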

T4 sequence (P56524 627-1084 limits assumed): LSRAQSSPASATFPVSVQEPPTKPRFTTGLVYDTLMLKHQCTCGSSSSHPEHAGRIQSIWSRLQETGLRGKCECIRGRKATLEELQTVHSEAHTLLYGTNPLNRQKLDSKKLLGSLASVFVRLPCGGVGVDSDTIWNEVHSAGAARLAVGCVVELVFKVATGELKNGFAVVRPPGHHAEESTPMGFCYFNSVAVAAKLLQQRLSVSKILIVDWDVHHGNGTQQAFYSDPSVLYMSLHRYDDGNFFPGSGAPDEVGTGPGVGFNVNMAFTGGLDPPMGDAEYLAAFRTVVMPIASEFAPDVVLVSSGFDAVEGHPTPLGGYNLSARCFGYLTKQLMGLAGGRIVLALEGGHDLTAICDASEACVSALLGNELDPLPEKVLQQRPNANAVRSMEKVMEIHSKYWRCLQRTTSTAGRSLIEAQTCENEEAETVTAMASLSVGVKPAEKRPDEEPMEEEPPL
T1 sequence (Q13547 whole entry, canonical isoform): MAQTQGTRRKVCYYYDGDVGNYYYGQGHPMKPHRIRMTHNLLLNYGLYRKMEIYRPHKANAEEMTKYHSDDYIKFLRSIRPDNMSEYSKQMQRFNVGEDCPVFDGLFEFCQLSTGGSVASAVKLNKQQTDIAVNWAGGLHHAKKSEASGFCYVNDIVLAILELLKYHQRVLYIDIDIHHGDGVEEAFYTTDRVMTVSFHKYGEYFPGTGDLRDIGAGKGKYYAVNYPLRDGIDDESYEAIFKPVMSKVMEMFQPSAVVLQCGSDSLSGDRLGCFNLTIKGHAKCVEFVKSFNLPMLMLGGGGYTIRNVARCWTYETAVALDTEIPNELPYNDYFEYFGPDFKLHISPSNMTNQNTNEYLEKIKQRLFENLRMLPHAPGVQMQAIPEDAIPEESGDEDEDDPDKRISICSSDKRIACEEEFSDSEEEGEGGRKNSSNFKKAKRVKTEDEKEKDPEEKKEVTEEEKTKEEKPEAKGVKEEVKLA
T5 sequence (Q9UKV0 604-1066 isoform Q9UKV0-5): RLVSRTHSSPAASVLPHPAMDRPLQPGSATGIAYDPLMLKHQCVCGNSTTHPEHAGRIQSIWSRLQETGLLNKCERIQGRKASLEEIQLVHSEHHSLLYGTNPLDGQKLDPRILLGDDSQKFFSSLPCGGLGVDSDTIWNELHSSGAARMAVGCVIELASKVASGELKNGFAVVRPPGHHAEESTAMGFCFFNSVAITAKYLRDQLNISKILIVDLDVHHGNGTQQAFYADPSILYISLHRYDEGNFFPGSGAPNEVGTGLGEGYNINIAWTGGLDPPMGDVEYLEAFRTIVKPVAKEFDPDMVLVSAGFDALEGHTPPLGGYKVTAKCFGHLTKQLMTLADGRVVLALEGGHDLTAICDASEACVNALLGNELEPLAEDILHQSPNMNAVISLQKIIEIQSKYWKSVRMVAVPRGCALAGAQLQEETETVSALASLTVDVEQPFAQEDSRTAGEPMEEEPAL
T2 sequence (Q9UQL6 656-1122 limits assumed): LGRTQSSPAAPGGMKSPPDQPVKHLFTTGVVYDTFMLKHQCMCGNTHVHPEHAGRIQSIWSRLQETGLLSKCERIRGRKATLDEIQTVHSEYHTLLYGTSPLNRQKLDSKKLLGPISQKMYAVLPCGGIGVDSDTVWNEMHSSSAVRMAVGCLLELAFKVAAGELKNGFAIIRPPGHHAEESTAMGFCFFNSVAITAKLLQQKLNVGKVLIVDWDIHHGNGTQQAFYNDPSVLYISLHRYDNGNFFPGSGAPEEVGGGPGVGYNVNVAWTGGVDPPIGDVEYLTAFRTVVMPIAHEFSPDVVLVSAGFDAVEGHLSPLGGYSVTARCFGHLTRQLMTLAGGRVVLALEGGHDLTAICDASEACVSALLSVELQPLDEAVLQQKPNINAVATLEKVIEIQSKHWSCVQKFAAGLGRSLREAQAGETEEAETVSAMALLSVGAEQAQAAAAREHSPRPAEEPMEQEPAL

IC50 (Human HDAC1) | IC50 (Human HDAC5) | IC50 (Recombinant human HDAC6) | IC50 (Human HDAC4) | IC50 (Human HDAC9) | IC50 (Human HDAC7) | SMILES
> 10000 nM | ≤ 10000 nM | ≤ 10000 nM | ≤ 10000 nM | ≤ 10000 nM | ≤ 10000 nM | Cc1ccc(N(Cc2ccc(-c3noc(C(F)(F)F)n3)s2)c2cnccn2)nn1 [Example DF, 6-Methyl-N-(pyrazin-2-yl)-N-({5-[5-(trifluoromethyl)-1,2,4-oxadiazol-3-yl]thiophen-2-yl}methyl)pyridazin-3-amine]
> 10000 nM | ≤ 500 nM | ≤ 1000 nM | ≤ 500 nM | ≤ 500 nM | ≤ 500 nM | FC(F)(F)c1nc(-c2ccc(CN(c3cnccn3)c3nccc4cnccc34)s2)no1 [Example AK, N-(Pyrazin-2-yl)-N-({5-[5-(trifluoromethyl)-1,2,4-oxadiazol-3-yl]thiophen-2-yl}methyl)-2,6-naphthyridin-1-amine]
> 10000 nM | ≤ 1000 nM | ≤ 1000 nM | ≤ 10000 nM | ≤ 10000 nM | ≤ 10000 nM | Cc1cc(N(Cc2ccc(-c3noc(C(F)(F)F)n3)s2)c2cnccn2)ncn1 [Example CG, 6-Methyl-N-(pyrazin-2-yl)-N-({5-[5-(trifluoromethyl)-1,2,4-oxadiazol-3-yl]thiophen-2-yl}methyl)pyrimidin-4-amine]
> 10000 nM | ≤ 1000 nM | ≤ 1000 nM | ≤ 500 nM | ≤ 1000 nM | ≤ 1000 nM | FC(F)(F)c1nc(-c2ccc(CN(c3cnccn3)c3ccc4ccncc4n3)s2)no1 [Example Y, N-(Pyrazin-2-yl)-N-({5-[5-(trifluoromethyl)-1,2,4-oxadiazol-3-yl]thiophen-2-yl}methyl)-1,7-naphthyridin-2-amine]
> 10000 nM | ≤ 500 nM | ≤ 10000 nM | ≤ 500 nM | ≤ 10000 nM | ≤ 1000 nM | CC(c1ccc(-c2noc(C(F)(F)F)n2)s1)N(c1cnccn1)c1cnccn1 (stereo not drawn) [Example BB, N-(Pyrazin-2-yl)-N-(1-{5-[5-(trifluoromethyl)-1,2,4-oxadiazol-3-yl]thiophen-2-yl}ethyl)pyrazin-2-amine]
> 10000 nM | ≤ 1000 nM | ≤ 1000 nM | ≤ 500 nM | ≤ 1000 nM | ≤ 1000 nM | FC(F)(F)c1nc(-c2ccc(CN(c3cnccn3)c3ccc4ncccc4n3)s2)no1 [Example X, N-(Pyrazin-2-yl)-N-({5-[5-(trifluoromethyl)-1,2,4-oxadiazol-3-yl]thiophen-2-yl}methyl)-1,5-naphthyridin-2-amine]
> 10000 nM | ≤ 10000 nM | ≤ 10000 nM | ≤ 10000 nM | ≤ 10000 nM | ≤ 10000 nM | COc1cc(N(Cc2ccc(-c3noc(C(F)(F)F)n3)s2)c2cnccn2)ncn1 [Example CH, 6-Methoxy-N-(pyrazin-2-yl)-N-({5-[5-(trifluoromethyl)-1,2,4-oxadiazol-3-yl]thiophen-2-yl}methyl)pyrimidin-4-amine]
> 10000 nM | ≤ 500 nM | ≤ 10000 nM | ≤ 500 nM | ≤ 1000 nM | ≤ 500 nM | COc1ncc(N(Cc2ccc(-c3noc(C(F)(F)F)n3)s2)c2cnccn2)cn1 [Example CT, 2-Methoxy-N-(pyrazin-2-yl)-N-({5-[5-(trifluoromethyl)-1,2,4-oxadiazol-3-yl]thiophen-2-yl}methyl)pyrimidin-5-amine]
> 10000 nM | ≤ 500 nM | ≤ 10000 nM | ≤ 1000 nM | ≤ 10000 nM | ≤ 10000 nM | COc1ncncc1N(Cc1ccc(-c2noc(C(F)(F)F)n2)s1)c1cnccn1 [Example CY, 4-Methoxy-N-(pyrazin-2-yl)-N-({5-[5-(trifluoromethyl)-1,2,4-oxadiazol-3-yl]thiophen-2-yl}methyl)pyrimidin-5-amine]
> 10000 nM | ≤ 10000 nM | ≤ 10000 nM | ≤ 10000 nM | > 10000 nM | ≤ 10000 nM | Cc1cnc(N(Cc2ccc(-c3noc(C(F)(F)F)n3)s2)c2cc(C(F)(F)F)cnn2)cn1 [Example EO, N-(5-Methylpyrazin-2-yl)-5-(trifluoromethyl)-N-({5-[5-(trifluoromethyl)-1,2,4-oxadiazol-3-yl]thiophen-2-yl}methyl)pyridazin-3-amine]
> 10000 nM | ≤ 10000 nM | ≤ 10000 nM | > 10000 nM | > 10000 nM | > 10000 nM | FC(F)(F)c1ccnc(N(Cc2ccc(-c3noc(C(F)(F)F)n3)s2)c2cnccn2)c1 [Example AI, N-({5-[5-(Trifluoromethyl)-1,2,4-oxadiazol-3-yl]thiophen-2-yl}methyl)-N-[4-(trifluoromethyl)pyridin-2-yl]pyrazin-2-amine]
≤ 10000 nM | ≤ 10000 nM | ≤ 10000 nM | ≤ 1000 nM | ≤ 10000 nM | ≤ 10000 nM | FC(F)(F)c1nc(-c2ccc(CN(c3cnccn3)c3cnc(-c4ccco4)cn3)s2)no1 [Example BJ, 5-(Furan-2-yl)-N-(pyrazin-2-yl)-N-({5-[5-(trifluoromethyl)-1,2,4-oxadiazol-3-yl]thiophen-2-yl}methyl)pyrazin-2-amine]
